The values below come from PubChem BioAssay (NCI).

Among the test systems are HCC-2998 colon; OVCAR-3 ovarian; SK-MEL-2 melanoma; SK-MEL-28 melanoma; SK-OV-3 ovarian; T-47D breast; UACC-62 melanoma; SR leukemia.
Test in all cases: NCI anticancer screen, dose series, 48 h

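Following 48 hours of exposure in 96-well plates, responses at five concentrations were used to interpolate endpoints linearly. GI50 marks 50% less growth. TGI is the concentration that stops growth completely.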

As for `CC/C=C\C[C@H](O)C/C=C1/C(=O)C(Cl)=C[C@@H]1C/C=C\CCCC(=O)OC`, the GI50 was 0.701 µM in the assay with HCC-2998 colon; 0.525 µM in the assay on OVCAR-3 ovarian; 0.843 µM with SK-MEL-2 melanoma; 0.432 µM with SK-MEL-28 melanoma; 4.72 µM in the assay with SK-OV-3 ovarian; 0.985 µM with T-47D breast. Moreover, the GI50 in the assay on UACC-62 melanoma was 0.27 µM. In addition, the TGI in the assay on HCC-2998 colon was found to be 2.22 µM; in the assay on OVCAR-3 ovarian it was 1.88 µM; in the assay with SK-MEL-2 melanoma, 3.52 µM; in the assay with SK-MEL-28 melanoma it was 1.31 µM; in the assay with SK-OV-3 ovarian, 16.5 µM; in the assay with T-47D breast, 4.37 µM. The same compound gave a TGI in the assay with UACC-62 melanoma of 0.717 µM.
As to `COc1ccccc1/C=N\N/C(N)=N\N=C\c1ccccc1OC`, the GI50 was 1.03 µM with HCC-2998 colon; 0.157 µM in the assay on OVCAR-3 ovarian; 0.527 µM with SK-MEL-2 melanoma; 2.64 µM in the assay on SK-MEL-28 melanoma; 0.484 µM in the assay on SK-OV-3 ovarian; 0.0319 µM in the assay on SR leukemia. For the same compound, the results for the GI50 in the assay on T-47D breast and in the assay with UACC-62 melanoma were 0.457 µM and 0.497 µM, respectively. Also, the TGI in the assay with HCC-2998 colon was determined as 11.3 µM; with OVCAR-3 ovarian it was 0.393 µM; in the assay on SK-MEL-2 melanoma it was 10.3 µM; with SK-MEL-28 melanoma, 28.4 µM; in the assay with SK-OV-3 ovarian, 7.62 µM; with SR leukemia it was 0.74 µM. Moreover, the results for the TGI in the assay on T-47D breast and in the assay on UACC-62 melanoma were 7.36 µM and more than 40.7 µM, respectively.
In the case of `O=CCC1CCCCC1`, the TGI in the assay on OVCAR-3 ovarian, in the assay on SK-MEL-2 melanoma, in the assay with SK-MEL-28 melanoma, in the assay on SK-OV-3 ovarian and in the assay on T-47D breast was more than 100 µM in each case.
Turning to `O=C(Nc1ccc(Nc2ccncc2)cc1)c1ccc([N+](=O)[O-])cc1`, the GI50 in the assay with HCC-2998 colon is 2.77 µM; in the assay with OVCAR-3 ovarian, 1.93 µM; in the assay with SK-MEL-2 melanoma, 9.64 µM; with SK-MEL-28 melanoma it was 5 µM; in the assay on SK-OV-3 ovarian, 5.85 µM; in the assay on SR leukemia it was 2.32 µM. The GI50 is 3.3 µM with T-47D breast and 2.65 µM in the assay with UACC-62 melanoma. Also, the TGI in the assay with HCC-2998 colon was 12.3 µM; in the assay on OVCAR-3 ovarian, 3.76 µM; in the assay with SK-MEL-2 melanoma, 28.9 µM; with SK-MEL-28 melanoma, 16.7 µM; with SK-OV-3 ovarian, 19.8 µM; in the assay with SR leukemia, more than 20.4 µM. Besides, the results for the TGI in the assay with T-47D breast and in the assay on UACC-62 melanoma were 20 µM and 9.64 µM, respectively.
With `N=C(N)C1CN(CCc2c[nH]c3ccccc23)C(=O)NC1=O` (stereo not drawn), the TGI with HCC-2998 colon, in the assay on OVCAR-3 ovarian, in the assay on SK-MEL-28 melanoma, in the assay on SK-OV-3 ovarian, in the assay on SR leukemia and in the assay with T-47D breast was more than 100 µM throughout. The same compound yielded a TGI with UACC-62 melanoma of more than 100 µM.
On to `NC(=S)N/N=C/C(=O)O`, for which the GI50 in the assay with OVCAR-3 ovarian was 31.7 µM; in the assay on SK-MEL-2 melanoma, more than 100 µM; in the assay with SK-MEL-28 melanoma, more than 100 µM; in the assay with SK-OV-3 ovarian, more than 100 µM; with SR leukemia, more than 100 µM; with T-47D breast, 21.3 µM. Besides, the TGI in the assay with OVCAR-3 ovarian, with SK-MEL-2 melanoma, in the assay with SK-MEL-28 melanoma, in the assay with SK-OV-3 ovarian, in the assay with SR leukemia and with T-47D breast was more than 100 µM each time.
As for `Cc1ccc(S(=O)(=O)Nc2ccccc2C=O)cc1`, the TGI in the assay with OVCAR-3 ovarian was found to be 60.1 µM; in the assay with SK-MEL-2 melanoma it was 30.4 µM; in the assay on SK-MEL-28 melanoma it was 64.7 µM; with SK-OV-3 ovarian, 94.8 µM; in the assay with SR leukemia, 86.3 µM; in the assay on T-47D breast, 72.7 µM. This compound displayed a TGI in the assay with UACC-62 melanoma of 27 µM.
Regarding `CC1=C(C(=O)Nc2ccc(F)c(Cl)c2)C(c2ccccc2O)NC(=S)N1` (stereo not drawn), the GI50 with OVCAR-3 ovarian was 12.6 µM; in the assay on SK-MEL-2 melanoma, 23.6 µM; in the assay with SK-OV-3 ovarian, more than 50 µM; with SR leukemia it was 34.8 µM; in the assay on T-47D breast, more than 50 µM; in the assay on UACC-62 melanoma, more than 50 µM. The TGI with OVCAR-3 ovarian was 42.6 µM; in the assay on SK-MEL-2 melanoma, more than 50 µM; in the assay with SK-OV-3 ovarian it was more than 50 µM; in the assay with SR leukemia it was more than 50 µM; in the assay with T-47D breast, more than 50 µM; in the assay on UACC-62 melanoma, more than 50 µM.
`COC(=O)C1c2cc3c(cc2C(OC2OC(C)C(OC)C(C)(OC)C2OC)CC1(C)O)C(=O)c1c(O)cc2c(c1C3=O)OC1OC2(C)C(O)C([N+](C)(C)[O-])C1O` (stereo not drawn): the TGI with OVCAR-3 ovarian was more than 32.3 µM; with SK-MEL-2 melanoma, 0.641 µM; in the assay with SK-OV-3 ovarian it was more than 64.1 µM; with T-47D breast, 0.847 µM; in the assay with UACC-62 melanoma, 0.311 µM.
Consider `Oc1ccc(Nc2ncnc3c2sc2ncccc23)cc1`, for which the GI50 in the assay on HCC-2998 colon is more than 33.3 µM; in the assay on OVCAR-3 ovarian, 0.397 µM; in the assay on SK-MEL-2 melanoma, 27.3 µM; in the assay with SK-MEL-28 melanoma, 3.75 µM; in the assay on SK-OV-3 ovarian, 0.168 µM; in the assay with UACC-62 melanoma, 0.0379 µM. In addition, the TGI in the assay on HCC-2998 colon was more than 100 µM; in the assay on OVCAR-3 ovarian, more than 100 µM; in the assay with SK-MEL-2 melanoma, more than 100 µM; in the assay on SK-MEL-28 melanoma, more than 100 µM; in the assay with SK-OV-3 ovarian, more than 40.2 µM; in the assay with UACC-62 melanoma it was 46.1 µM.
For the compound `Cc1cc(Nc2ccc(NC(=O)c3ccc(Nc4ccnc5ccccc45)cc3)cc2)nc(N)n1`, the GI50 with OVCAR-3 ovarian was 1.43 µM; with SK-MEL-2 melanoma, 5.56 µM; with SK-OV-3 ovarian, 7.15 µM; in the assay on UACC-62 melanoma, 2.33 µM. Further, the TGI stood at 4.26 µM in the assay with OVCAR-3 ovarian, 94.7 µM in the assay on SK-MEL-2 melanoma, 54.8 µM in the assay on SK-OV-3 ovarian and 5.84 µM with UACC-62 melanoma.
With `NC(N)=N/N=C/c1c(-c2ccsc2)nc2sccn12`, the GI50 in the assay on OVCAR-3 ovarian was 8.8 µM; in the assay with SK-MEL-28 melanoma it was 14.2 µM; in the assay with SK-OV-3 ovarian, 14.3 µM; in the assay on T-47D breast, 16.8 µM; in the assay with UACC-62 melanoma, 15.6 µM. The TGI in the assay with OVCAR-3 ovarian was 21.2 µM; in the assay with SK-MEL-28 melanoma it was 27.6 µM; in the assay on SK-OV-3 ovarian it was 30.3 µM; with T-47D breast it was 31.9 µM; in the assay with UACC-62 melanoma, 29 µM.
For `CC1(C)CC(=O)C(C=NC(=S)c2ccccc2)=C(O)C1`, the TGI in the assay with HCC-2998 colon, in the assay on OVCAR-3 ovarian, in the assay on SK-MEL-2 melanoma, with SK-MEL-28 melanoma, in the assay with SK-OV-3 ovarian and with UACC-62 melanoma was more than 100 µM in each case.
As to `CC(C)C1=CC23CCC4C(C)(C(=O)O)CCCC4(C)C2CC1C1C(=O)N(c2ccc(Cc4ccc(N5C(=O)C6C7CC8C9(C)CCCC(C)(C(=O)O)C9CCC8(C=C7C(C)C)C6C5=O)cc4)cc2)C(=O)C13` (stereo not drawn), the TGI in the assay with HCC-2998 colon came to 21.7 µM; in the assay on OVCAR-3 ovarian, 22.6 µM; in the assay with SK-MEL-2 melanoma, 26.4 µM; in the assay on SK-MEL-28 melanoma it was 24.9 µM; with SR leukemia it was 28 µM; in the assay on T-47D breast, 42.6 µM. The TGI in the assay with UACC-62 melanoma came out at 29.7 µM.
With `CC(=O)OC1COC(Oc2c(C)c3c4c(c2O)[C@@H](C)CC[C@@H]4[C@@H](C)C[C@H]3C=C(C)C)C(O)C1OC(C)=O` (stereo partly drawn), the GI50 in the assay with HCC-2998 colon was 2.3 µM; in the assay with OVCAR-3 ovarian, 10.6 µM; in the assay with SK-MEL-2 melanoma, 17.9 µM; in the assay on SK-MEL-28 melanoma it was 25.4 µM; in the assay with SK-OV-3 ovarian, 20.8 µM; in the assay with T-47D breast, 20.1 µM. Besides, the GI50 with UACC-62 melanoma was 15.1 µM. Moreover, the TGI in the assay on HCC-2998 colon is 8.84 µM; in the assay with OVCAR-3 ovarian, 23.3 µM; with SK-MEL-2 melanoma, 42.1 µM; in the assay with SK-MEL-28 melanoma, 56.2 µM; in the assay with SK-OV-3 ovarian it was 37.1 µM; in the assay on T-47D breast it was 56.4 µM. In the assay with UACC-62 melanoma, this compound registered a TGI of 28.9 µM.
With `CC1(C)C(C#N)C1C1=C(N2CCOCC2)[C@]2(C)C(OC(=O)c3ccccc3)CC[C@@H]2C1` (stereo partly drawn), the TGI in the assay on HCC-2998 colon, in the assay with OVCAR-3 ovarian, in the assay with SK-MEL-28 melanoma, in the assay with SK-OV-3 ovarian, in the assay on SR leukemia and in the assay on T-47D breast was more than 100 µM in each case. The TGI in the assay on UACC-62 melanoma was more than 100 µM.
Take `CC[As](CC)SC[C@H](C)C(=O)N1CCC[C@H]1C(=O)O`: the GI50 was 0.0135 µM with OVCAR-3 ovarian; 0.522 µM in the assay with SK-MEL-2 melanoma; 0.055 µM in the assay on SK-MEL-28 melanoma; 0.326 µM in the assay on SK-OV-3 ovarian; less than 0.01 µM in the assay on SR leukemia; 0.414 µM in the assay on T-47D breast. In the assay with UACC-62 melanoma, the GI50 was 0.149 µM. The TGI with OVCAR-3 ovarian turned out to be 0.0347 µM; in the assay on SK-MEL-2 melanoma, 1.77 µM; with SK-MEL-28 melanoma, 0.212 µM; with SK-OV-3 ovarian it was 1.05 µM; with SR leukemia, 0.0102 µM; in the assay with T-47D breast it was 1.96 µM. Moreover, in the assay on UACC-62 melanoma, the TGI came to 0.538 µM.
As for `CO/N=C(/C)c1cccc(Nc2cc(-n3nnc4ccccc43)nc3ccccc23)c1`, the GI50 with HCC-2998 colon is 25.7 µM; with SK-MEL-2 melanoma, more than 100 µM; with SK-MEL-28 melanoma it was more than 100 µM; in the assay with SK-OV-3 ovarian it was more than 100 µM; in the assay with T-47D breast, more than 100 µM; in the assay with UACC-62 melanoma, 25.2 µM. Moreover, the TGI in the assay on HCC-2998 colon, with SK-MEL-2 melanoma, in the assay on SK-MEL-28 melanoma, in the assay on SK-OV-3 ovarian, in the assay with T-47D breast and with UACC-62 melanoma was more than 100 µM each time.
For `CCOC(=O)C1=CN(C)C=C(C(=O)OCC)C1c1cc(Br)c(OCC)c(OC)c1`, the GI50 was more than 100 µM in the assay on HCC-2998 colon; 48 µM in the assay with OVCAR-3 ovarian; more than 100 µM in the assay with SK-MEL-28 melanoma; more than 100 µM in the assay on SK-OV-3 ovarian; more than 100 µM in the assay with SR leukemia; 23.5 µM in the assay on T-47D breast. The GI50 in the assay with UACC-62 melanoma was 69.4 µM. In addition, the TGI in the assay with HCC-2998 colon, in the assay with OVCAR-3 ovarian, with SK-MEL-28 melanoma, in the assay on SK-OV-3 ovarian, in the assay with SR leukemia and in the assay on T-47D breast was more than 100 µM in each case. The compound further returned a TGI in the assay with UACC-62 melanoma of more than 100 µM.
